In general, IC50 refers to the midpoint of a concentration-inhibition curve.

The values below come from ChEMBL document CHEMBL4138153, “Synthesis, monoamine oxidase inhibition activity and molecular docking studies of novel 4-hydroxy-N'-[benzylidene or 1-phenylethylidene]-2-H/methyl/benzyl-1,2-benzothiazine-3-carbohydrazide 1,1-dioxides” (Eur J Med Chem, 2018).

Each structure is given as a SMILES string.

In data set [1] the target is T1, Amine oxidase [flavin-containing] A (Rattus norvegicus, UniProt P21396).
T1 sequence (P21396 whole entry): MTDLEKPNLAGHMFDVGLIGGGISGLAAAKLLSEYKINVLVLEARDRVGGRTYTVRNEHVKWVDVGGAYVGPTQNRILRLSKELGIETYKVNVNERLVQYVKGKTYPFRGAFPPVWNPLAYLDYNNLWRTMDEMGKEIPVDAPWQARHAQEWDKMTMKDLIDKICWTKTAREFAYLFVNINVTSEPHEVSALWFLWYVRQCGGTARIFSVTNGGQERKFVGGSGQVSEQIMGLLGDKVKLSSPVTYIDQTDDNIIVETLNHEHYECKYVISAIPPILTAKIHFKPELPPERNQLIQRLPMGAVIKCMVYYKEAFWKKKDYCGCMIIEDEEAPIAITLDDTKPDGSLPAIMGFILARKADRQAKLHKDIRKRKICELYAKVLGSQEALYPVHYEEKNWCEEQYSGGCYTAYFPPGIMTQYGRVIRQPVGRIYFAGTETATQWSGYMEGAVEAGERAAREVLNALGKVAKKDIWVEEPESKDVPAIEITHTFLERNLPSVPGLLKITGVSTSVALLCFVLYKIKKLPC
The experiment in a line: Inhibition of MAO-A in rat liver mitochondria using p-tyramine as substrate preincubated for 10 mins followed by substrate addition measured after 30 mins in presence of MAO-B inhibitor deprenyl by Amplex red dye-based fluorescence assay.

Data set [2] concerns the target T2, Amine oxidase [flavin-containing] B (Rattus norvegicus, UniProt P19643).
T2 sequence (P19643 whole entry): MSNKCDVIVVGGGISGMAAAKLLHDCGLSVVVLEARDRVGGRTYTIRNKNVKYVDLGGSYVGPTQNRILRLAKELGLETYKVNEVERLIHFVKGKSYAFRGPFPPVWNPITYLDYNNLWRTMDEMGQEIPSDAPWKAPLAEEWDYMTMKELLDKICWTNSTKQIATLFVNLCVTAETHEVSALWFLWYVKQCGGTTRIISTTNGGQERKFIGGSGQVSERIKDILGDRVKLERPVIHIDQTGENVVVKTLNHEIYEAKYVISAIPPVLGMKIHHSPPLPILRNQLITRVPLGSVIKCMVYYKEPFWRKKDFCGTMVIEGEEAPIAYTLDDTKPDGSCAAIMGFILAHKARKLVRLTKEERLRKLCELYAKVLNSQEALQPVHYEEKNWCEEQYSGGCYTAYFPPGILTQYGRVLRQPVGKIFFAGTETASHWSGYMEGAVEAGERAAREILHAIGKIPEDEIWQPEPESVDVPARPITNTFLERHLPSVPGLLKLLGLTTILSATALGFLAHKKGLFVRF
The experiment in a line: Inhibition of MAO-B in rat liver mitochondria using p-tyramine as substrate preincubated for 10 mins followed by substrate addition measured after 30 mins in presence of MAO-A inhibitor clorgyline by Amplex red dye-based fluorescence assay.

The species named for another data set is Rattus norvegicus. In words: Selectivity index, ratio of IC50 for MAO-A in rat liver mitochondria to IC50 for MAO-B in rat liver mitochondria.
The target of data set [3] is T2, Amine oxidase [flavin-containing] B. The experiment in a line: Competitive inhibition of MAO-B in rat liver mitochondria using p-tyramine as substrate up to 0.3 uM preincubated for 10 mins followed by substrate addition measured after 30 mins by Lineweaver-burk plot analysis. Particulars: 0.5 h; call rule not given here.

As to `O=C(N/N=C/c1ccccc1)C1=C(O)c2ccccc2S(=O)(=O)N1Cc1ccccc1`, the IC50 in data set [1] was no less than 100 µM; in data set [2], 9.52 µM. In the data set listed under Rattus norvegicus, the Ratio IC50 was greater than 10.5.
Taken in the same sequence, the figures for `COc1ccc(/C=N/NC(=O)C2=C(O)c3ccccc3S(=O)(=O)N2Cc2ccccc2)cc1` were 0.24 µM, 0.29 µM and 0.83.
As for `CCOc1ccc(/C=N/NC(=O)C2=C(O)c3ccccc3S(=O)(=O)N2Cc2ccccc2)cc1`, the IC50 was found to be 28.3 µM in data set [1] and 5.78 µM in data set [2]. Moreover, the Ratio IC50 in the data set listed under Rattus norvegicus is 4.89.
Taken in the same sequence, the figures for `CN1C(C(=O)NN)=C(O)c2ccccc2S1(=O)=O` were 0.12 µM, 1.5 µM and 0.08.
In the case of `COC(=O)C1=C(O)c2ccccc2S(=O)(=O)N1`, the IC50 in data set [1] came out at 2.97 µM; in data set [2], 0.21 µM. In addition, the “inhibition (INH)” value in data set [3] is “Active”. In the data set listed under Rattus norvegicus, the Ratio IC50 came out at 14.1.
On to `C/C(=N\NC(=O)C1=C(O)c2ccccc2S(=O)(=O)N1)c1ccc(Cl)cc1`, for which the IC50 in data set [1] is no less than 100 µM; in data set [2], 10.9 µM. For the same molecule, the Ratio IC50 in the data set filed under Rattus norvegicus is greater than 9.17.
For `O=C(N/N=C/c1ccccc1)C1=C(O)c2ccccc2S(=O)(=O)N1` the same measures were 1.91 µM, 8.86 µM and 0.21.
Taken in the same sequence, the figures for `C/C(=N\NC(=O)C1=C(O)c2ccccc2S(=O)(=O)N1C)c1ccc(F)cc1` were 10.8 µM, 25.1 µM and 0.43.
For `COC(=O)C1=C(O)c2ccccc2S(=O)(=O)N1Cc1ccccc1` the same measures were 9.51 µM, 0.29 µM and 32.8.
`CN1C(C(=O)N/N=C/c2ccccc2)=C(O)c2ccccc2S1(=O)=O`: the IC50 was determined as 21.1 µM in data set [1] and 1.76 µM in data set [2]. Also, the Ratio IC50 in the data set filed under Rattus norvegicus is 11.9.
For `C/C(=N\NC(=O)C1=C(O)c2ccccc2S(=O)(=O)N1C)c1ccc(Cl)cc1` the same measures were 11.2 µM, 0.76 µM and 14.7.
On to `O=C(NN=C1CCCC1)C1=C(O)c2ccccc2S(=O)(=O)N1`, for which the IC50 is no less than 100 µM in data set [1] and 0.92 µM in data set [2]. In the data set filed under Rattus norvegicus, the Ratio IC50 is greater than 109.
Taken in the same sequence, the figures for `CN1C(C(=O)N/N=C/c2ccc(Cl)cc2)=C(O)c2ccccc2S1(=O)=O` were 6.12 µM, 15.5 µM and 0.39.
Taken in the same sequence, the figures for `CN1C(C(=O)N/N=C/c2ccccc2O)=C(O)c2ccccc2S1(=O)=O` were 11.4 µM, 3.41 µM and 3.34.
Taken in the same sequence, the figures for `CC(C)c1ccc(/C=N/NC(=O)C2=C(O)c3ccccc3S(=O)(=O)N2C)cc1` were 0.44 µM, 18.2 µM and 0.02.
Regarding `COC(=O)CN1C(=O)c2ccccc2S1(=O)=O`, the IC50 in data set [1] is 1.11 µM; in data set [2], 0.27 µM. The Ratio IC50 in the data set listed under Rattus norvegicus is 4.11.
Taken in the same sequence, the figures for `C/C(=N\NC(=O)C1=C(O)c2ccccc2S(=O)(=O)N1Cc1ccccc1)c1ccccc1` were 1.22 µM, 2.26 µM and 0.54.
Taken in the same sequence, the figures for `O=C(N/N=C/c1cccc(Cl)c1)C1=C(O)c2ccccc2S(=O)(=O)N1` were 0.35 µM, 39.3 µM and 0.01.
Consider `Cc1ccc(/C=N/NC(=O)C2=C(O)c3ccccc3S(=O)(=O)N2C)cc1`, for which the figures for the IC50 in data set [1] and in data set [2] were 4.85 µM and 24.1 µM, respectively. In addition, the Ratio IC50 in the data set filed under Rattus norvegicus turned out to be 0.2.
For `C/C(=N\NC(=O)C1=C(O)c2ccccc2S(=O)(=O)N1C)c1ccccc1` the same measures were 6.67 µM, 7.14 µM and 0.93.
Taken in the same sequence, the figures for `Cc1ccc(/C=N/NC(=O)C2=C(O)c3ccccc3S(=O)(=O)N2)cc1` were 7.48 µM, 0.64 µM and 11.7.
Regarding `CCOc1ccc(/C=N/NC(=O)C2=C(O)c3ccccc3S(=O)(=O)N2)cc1`, the IC50 in data set [1] was 16.9 µM; in data set [2], 9.31 µM. Further, in the data set filed under Rattus norvegicus, the Ratio IC50 stood at 1.81.
As for `COc1ccc(/C=N/NC(=O)C2=C(O)c3ccccc3S(=O)(=O)N2C)cc1`, the results for the IC50 in data set [1] and in data set [2] were 18.9 µM and 23.1 µM, respectively. Also, the Ratio IC50 in the data set listed under Rattus norvegicus worked out at 0.82.
Consider `CN1C(C(=O)N/N=C/c2cccc(Cl)c2)=C(O)c2ccccc2S1(=O)=O`, for which the IC50 is 29.8 µM in data set [1] and 38.3 µM in data set [2]. Moreover, the Ratio IC50 in the data set filed under Rattus norvegicus turned out to be 0.78.
With `COC(=O)C1=C(O)c2ccccc2S(=O)(=O)N1C`, the IC50 in data set [1] is 26.6 µM; in data set [2] it was 23.1 µM. Besides, the Ratio IC50 in the data set filed under Rattus norvegicus worked out at 1.15.
For the molecule `C/C(=N\NC(=O)C1=C(O)c2ccccc2S(=O)(=O)N1Cc1ccccc1)c1ccc(Cl)cc1`, the IC50 in data set [1] came to 0.33 µM; in data set [2], 10.1 µM. Further, the Ratio IC50 in the data set filed under Rattus norvegicus was determined as 0.03.
For `Cc1ccc(/C=N/NC(=O)C2=C(O)c3ccccc3S(=O)(=O)N2Cc2ccccc2)cc1` the same measures were no less than 100 µM, 89.1 µM and greater than 1.12.
For `O=C(NN=C1CCCC1)C1=C(O)c2ccccc2S(=O)(=O)N1Cc1ccccc1` the same measures were no less than 100 µM, 0.99 µM and greater than 101.
As for `O=C(N/N=C/c1ccc(Cl)cc1)C1=C(O)c2ccccc2S(=O)(=O)N1Cc1ccccc1`, the values for the IC50 in data set [1] and in data set [2] were no less than 100 µM and 2.08 µM, respectively. Moreover, in the data set filed under Rattus norvegicus, the Ratio IC50 is greater than 48.1.
Taken in the same sequence, the figures for `CN1C(C(=O)NN=C2CCCC2)=C(O)c2ccccc2S1(=O)=O` were 0.38 µM, 8.61 µM and 0.04.
Take `CCOc1ccc(/C=N/NC(=O)C2=C(O)c3ccccc3S(=O)(=O)N2C)cc1`: the IC50 in data set [1] amounted to 0.32 µM; in data set [2], 0.76 µM. Besides, the Ratio IC50 in the data set filed under Rattus norvegicus is 0.42.
For `NNC(=O)C1=C(O)c2ccccc2S(=O)(=O)N1Cc1ccccc1` the same measures were no less than 100 µM, 10.6 µM and greater than 9.43.
For `COc1ccc(/C=N/NC(=O)C2=C(O)c3ccccc3S(=O)(=O)N2)cc1` the same measures were 5.76 µM, 1.91 µM and 3.02.
For `O=C(N/N=C/c1ccc(Cl)cc1)C1=C(O)c2ccccc2S(=O)(=O)N1` the same measures were 0.177 µM, 0.31 µM and 0.57.
For the molecule `O=C(N/N=C/c1ccccc1O)C1=C(O)c2ccccc2S(=O)(=O)N1`, the figures for the IC50 in data set [1] and in data set [2] were 5.07 µM and 9.47 µM, respectively. Besides, the Ratio IC50 in the data set filed under Rattus norvegicus came out at 0.53.
For `O=C(N/N=C/c1ccccc1O)C1=C(O)c2ccccc2S(=O)(=O)N1Cc1ccccc1` the same measures were 18.7 µM, 4.24 µM and 4.41.
`C/C(=N\NC(=O)C1=C(O)c2ccccc2S(=O)(=O)N1)c1ccc(F)cc1`: the IC50 was 53.4 µM in data set [1] and 40.3 µM in data set [2]. For the same molecule, the Ratio IC50 in the data set listed under Rattus norvegicus was 1.32.
For `O=C(N/N=C/c1cccc(Cl)c1)C1=C(O)c2ccccc2S(=O)(=O)N1Cc1ccccc1` the same measures were 0.96 µM, 36.4 µM and 0.02.
For `C/C(=N\NC(=O)C1=C(O)c2ccccc2S(=O)(=O)N1Cc1ccccc1)c1ccc(F)cc1` the same measures were no less than 100 µM, 6.04 µM and greater than 16.5.
Taken in the same sequence, the figures for `NNC(=O)C1=C(O)c2ccccc2S(=O)(=O)N1` were 1.58 µM, 4.33 µM and 0.36.
Take `CC(C)c1ccc(/C=N/NC(=O)C2=C(O)c3ccccc3S(=O)(=O)N2)cc1`: the figures for the IC50 in data set [1] and in data set [2] were no less than 100 µM and 38.1 µM, respectively. In the data set filed under Rattus norvegicus, the Ratio IC50 is greater than 2.62.
For `CC(C)c1ccc(/C=N/NC(=O)C2=C(O)c3ccccc3S(=O)(=O)N2Cc2ccccc2)cc1` the same measures were 5.07 µM, 36.8 µM and 0.13.
